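In this assay, cells in 96-well plates receive the compound at five concentrations for 48 hours. Endpoints are linearly interpolated between the surrounding concentrations. Definition used: TGI = concentration required for complete inhibition of growth.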 Where only a bound is given, the exact number is not on record here.

Common to all, as to assay: NCI-60 cell line screen, 48 h
Experiment [1] has as its system SF-268 CNS.
In experiment [2] the test system is SK-MEL-28 melanoma.
Experiment [3] concerns NCI-H226 lung.
Experiment [4] deals with NCI-H23 lung.
In experiment [5] the test system is MALME-3M melanoma.
The subject of experiment [6] is HL-60(TB) leukemia.
In experiment [7] the test system is SK-MEL-5 melanoma.
Experiment [8] deals with UO-31 renal.
The subject of experiment [9] is OVCAR-4 ovarian.
Experiment [10] concerns SR leukemia.
In experiment [11] the test system is RPMI-8226 leukemia.
In experiment [12] the test system is HOP-62 NSCLC.
The subject of experiment [13] is MDA-N.
For experiment [14], the system named is TK-10 renal.
For experiment [15], the system named is SNB-75 CNS.
In experiment [16] the test system is HS 578T breast.
Experiment [17] deals with DU-145 prostate.
Experiment [18] has as its system A498 renal.
Experiment [19] deals with CCRF-CEM leukemia.

Take `CN(C1=NCCO1)c1cccc2ccccc12`: the TGI in experiment [1], in [2], in [3], in [4], in experiment [5] and in experiment [6] was above 10 µM in each case. Further, the TGI in experiment [7], in experiment [8], in [9], in [10], in [11] and in experiment [12] was above 10 µM in each case. Moreover, the TGI in [13], in experiment [14], in experiment [15], in [16], in experiment [17] and in [18] was above 10 µM each time. For the same molecule, the TGI in [19] was above 10 µM.

With `CCOP(=O)(OCC)C(NC(=O)OCC(Cl)(Cl)Cl)n1nnc(C(=O)OC)c1C(=O)OC` (configuration not stated), the TGI in experiment [1], in [2], in experiment [3], in experiment [4], in experiment [5] and in [6] was above 100 µM each time. Further, the TGI in [7], in experiment [8], in [9], in experiment [10], in [11] and in experiment [12] was above 100 µM in each case. Besides, the TGI in experiment [13], in experiment [14], in [15], in [16], in [17] and in experiment [18] was above 100 µM throughout. Also, the TGI in [19] is above 100 µM.

In the case of `CN(C)c1nc(N(C)C)nc(N(C)C)n1`, the TGI is above 150 µM in experiment [1]; above 150 µM in [2]; above 150 µM in [3]; above 143 µM in experiment [4]; above 150 µM in [5]; above 148 µM in [6]. Besides, the TGI is 136 µM in [7]; above 150 µM in experiment [8]; above 143 µM in [9]; above 150 µM in experiment [10]; above 150 µM in experiment [11]; above 142 µM in experiment [12]. The TGI was above 150 µM in experiment [13]; above 150 µM in experiment [14]; 149 µM in experiment [15]; above 150 µM in [16]; above 150 µM in experiment [17]; above 150 µM in [18]. Further, in experiment [19], the TGI was above 150 µM.

These data come from PubChem BioAssay (NCI).
